Tests used:
[1] = molecular target: T1, SMARCA4-HiBiT HeLa cells (protein which is expressed from the SMARCA4 gene) (Homo sapiens, UniProt P51532); assay: SMARCA4 degradation assay (HiBiT-fusion HeLa cell line, 24 h, luminescence); type: cell-based
T1 construct: protein which is expressed from the SMARCA2 and SMARCA4 genes; host or cells: HeLa (SMARCA4-HiBiT engineered line)
How it was run: (§1)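 HiBiT-fusion HeLa lines, 8,000 cells/well, overnight attachment; cpd 10-pt series (typically 10 μM–300 pM), 24 h, 37° C. Lysis with LgBiT + HiBiT substrate, 10 min shaking at RT, luminescence read. DC50 from dose-response fit; % degradation also scored at 1 μM.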

[2] = molecular target: T2, SMARCA2-HiBiT HeLa cells (protein which is expressed from the SMARCA2 gene) (Homo sapiens, UniProt P51531); assay: SMARCA2 degradation assay (HiBiT-fusion HeLa cell line, 24 h, luminescence); type: cell-based
T2 construct: protein which is expressed from the SMARCA2 and SMARCA4 genes; host or cells: HeLa (SMARCA2-HiBiT engineered line)
T2 sequence (P51531 whole entry, the tested form may be a part): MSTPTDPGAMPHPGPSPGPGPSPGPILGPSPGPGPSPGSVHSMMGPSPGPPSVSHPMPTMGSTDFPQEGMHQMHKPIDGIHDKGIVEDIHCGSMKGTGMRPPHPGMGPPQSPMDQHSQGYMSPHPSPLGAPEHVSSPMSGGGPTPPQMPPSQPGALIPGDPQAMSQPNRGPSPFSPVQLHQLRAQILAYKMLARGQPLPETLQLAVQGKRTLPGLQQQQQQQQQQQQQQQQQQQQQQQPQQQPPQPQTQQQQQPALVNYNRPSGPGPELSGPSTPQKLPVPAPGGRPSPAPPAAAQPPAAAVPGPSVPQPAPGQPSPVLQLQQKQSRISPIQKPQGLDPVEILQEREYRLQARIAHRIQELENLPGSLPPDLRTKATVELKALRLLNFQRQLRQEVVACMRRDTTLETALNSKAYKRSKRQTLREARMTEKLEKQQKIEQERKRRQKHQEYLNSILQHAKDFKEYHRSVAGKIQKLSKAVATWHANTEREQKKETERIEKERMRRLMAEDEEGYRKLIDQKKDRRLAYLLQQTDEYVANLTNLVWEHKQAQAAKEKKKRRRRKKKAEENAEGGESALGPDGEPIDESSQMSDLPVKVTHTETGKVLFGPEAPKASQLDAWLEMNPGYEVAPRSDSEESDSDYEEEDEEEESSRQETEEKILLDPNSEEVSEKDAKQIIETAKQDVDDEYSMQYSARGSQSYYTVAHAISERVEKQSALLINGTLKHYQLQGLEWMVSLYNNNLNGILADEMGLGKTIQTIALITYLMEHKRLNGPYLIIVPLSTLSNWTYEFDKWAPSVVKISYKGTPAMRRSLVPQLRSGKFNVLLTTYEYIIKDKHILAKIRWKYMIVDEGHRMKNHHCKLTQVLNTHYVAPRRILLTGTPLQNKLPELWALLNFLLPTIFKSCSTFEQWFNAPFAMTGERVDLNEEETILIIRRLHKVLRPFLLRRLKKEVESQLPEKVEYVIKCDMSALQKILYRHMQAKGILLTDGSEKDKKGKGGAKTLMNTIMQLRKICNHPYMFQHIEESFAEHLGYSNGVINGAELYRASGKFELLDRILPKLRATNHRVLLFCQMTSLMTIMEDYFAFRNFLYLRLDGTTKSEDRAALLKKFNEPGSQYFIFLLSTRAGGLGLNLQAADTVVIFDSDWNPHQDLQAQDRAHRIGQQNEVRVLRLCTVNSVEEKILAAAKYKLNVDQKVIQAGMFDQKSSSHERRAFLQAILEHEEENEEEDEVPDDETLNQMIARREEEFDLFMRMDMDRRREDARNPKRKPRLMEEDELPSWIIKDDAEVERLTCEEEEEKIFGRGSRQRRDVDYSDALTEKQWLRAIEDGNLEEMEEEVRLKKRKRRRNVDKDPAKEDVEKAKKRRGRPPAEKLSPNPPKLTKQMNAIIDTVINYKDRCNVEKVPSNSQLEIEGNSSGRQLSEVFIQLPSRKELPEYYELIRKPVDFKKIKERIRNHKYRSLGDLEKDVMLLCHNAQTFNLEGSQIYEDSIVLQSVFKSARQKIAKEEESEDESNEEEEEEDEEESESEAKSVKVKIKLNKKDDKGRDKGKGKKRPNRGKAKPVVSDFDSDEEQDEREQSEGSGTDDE
How it was run: as §1

T1 sequence (P51532 whole entry, the tested form may be a part): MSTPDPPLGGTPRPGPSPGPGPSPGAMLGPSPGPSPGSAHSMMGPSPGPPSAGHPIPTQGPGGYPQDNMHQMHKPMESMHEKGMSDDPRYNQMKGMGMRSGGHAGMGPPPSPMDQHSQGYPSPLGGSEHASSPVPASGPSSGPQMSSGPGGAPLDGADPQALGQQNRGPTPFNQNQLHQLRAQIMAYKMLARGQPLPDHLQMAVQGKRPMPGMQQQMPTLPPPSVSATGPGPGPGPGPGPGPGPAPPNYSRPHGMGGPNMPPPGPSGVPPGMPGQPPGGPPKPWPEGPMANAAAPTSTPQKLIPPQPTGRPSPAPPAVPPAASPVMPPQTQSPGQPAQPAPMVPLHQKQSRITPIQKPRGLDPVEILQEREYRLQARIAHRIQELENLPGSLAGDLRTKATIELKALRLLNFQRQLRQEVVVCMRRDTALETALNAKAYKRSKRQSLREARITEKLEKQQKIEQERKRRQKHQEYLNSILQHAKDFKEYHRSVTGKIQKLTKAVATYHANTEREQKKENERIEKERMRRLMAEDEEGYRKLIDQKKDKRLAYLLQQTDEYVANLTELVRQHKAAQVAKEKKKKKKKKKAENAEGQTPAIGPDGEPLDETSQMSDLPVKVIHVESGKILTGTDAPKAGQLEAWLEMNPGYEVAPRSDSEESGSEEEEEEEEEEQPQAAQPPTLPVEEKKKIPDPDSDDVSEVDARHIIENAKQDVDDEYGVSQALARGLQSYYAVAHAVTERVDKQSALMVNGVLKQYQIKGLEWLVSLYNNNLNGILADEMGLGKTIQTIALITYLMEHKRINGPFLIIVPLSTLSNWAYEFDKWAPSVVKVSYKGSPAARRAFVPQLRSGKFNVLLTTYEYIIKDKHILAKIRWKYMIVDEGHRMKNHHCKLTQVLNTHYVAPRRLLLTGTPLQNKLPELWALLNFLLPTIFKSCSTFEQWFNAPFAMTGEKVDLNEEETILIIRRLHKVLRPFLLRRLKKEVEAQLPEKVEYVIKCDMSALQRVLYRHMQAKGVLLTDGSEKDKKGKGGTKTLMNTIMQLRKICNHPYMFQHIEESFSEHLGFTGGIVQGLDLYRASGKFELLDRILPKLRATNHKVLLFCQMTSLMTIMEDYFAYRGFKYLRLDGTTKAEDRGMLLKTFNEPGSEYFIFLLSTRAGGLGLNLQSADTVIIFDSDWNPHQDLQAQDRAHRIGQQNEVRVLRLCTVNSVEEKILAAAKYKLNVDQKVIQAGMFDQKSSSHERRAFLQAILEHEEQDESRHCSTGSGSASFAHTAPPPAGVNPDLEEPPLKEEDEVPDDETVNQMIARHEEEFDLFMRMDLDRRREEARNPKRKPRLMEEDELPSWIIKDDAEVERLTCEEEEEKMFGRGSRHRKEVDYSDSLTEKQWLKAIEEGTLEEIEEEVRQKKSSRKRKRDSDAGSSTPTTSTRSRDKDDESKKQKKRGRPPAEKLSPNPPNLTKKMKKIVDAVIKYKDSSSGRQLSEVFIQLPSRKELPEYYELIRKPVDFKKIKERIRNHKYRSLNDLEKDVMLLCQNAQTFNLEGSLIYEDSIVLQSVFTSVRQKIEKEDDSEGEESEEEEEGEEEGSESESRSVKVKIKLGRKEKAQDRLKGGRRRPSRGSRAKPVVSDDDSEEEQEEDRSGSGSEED

Structure (SMILES)	DC50 [1] [nM]	inhibition at 1 µM [1] [%]	DC50 [2] [nM]	SMARCA2 % Degradation @ 1 μM ([2]; @ 1 μM)	SMARCA2 % Degradation @ 1 μM ([2]; 1 μM)
N#CC1CCN(CC#Cc2nccc(N3CCCN(c4cc(-c5ccccc5O)nnc4N)CC3)n2)CC1 [Compound P-357, 1-[3-(4-{4-[3-amino-6-(o-hydroxyphenyl)-4-pyridazinyl]-1,4-diazepan-1-yl}-2-pyrimidinyl)-2-propynyl]-4-piperidinecarbonitrile]	500 to 5000	30 to 70	50 to 500	++ (++=30-70%)	–
CC1CC(C)N1CC#Cc1nccc(N2CCN(c3cc(-c4ccccc4O)nnc3N)CC[C@H]2C)n1 (stereo partly drawn) [Compound P-249, o-{5-[(R)-4-{2-[3-(2,4-dimethyl-1-azetidinyl)-1-propynyl]-4-pyrimidinyl}-5-methyl-1,4-diazepan-1-yl]-6-amino-3-pyridaziny1} phenol]	< 50	< 30	< 50	++ (++=30-70%)	–
Nc1nnc(-c2ccccc2O)cc1N1CCCN(c2ccnc(C#CCn3cccn3)n2)CC1 [Compound P-149, 2-(5-(4-(2-(3-(1H-pyrazol-1-yl)prop-1-yn-1-yl)pyrimidin-4-yl)-1,4-diazepan-1-yl)-6-aminopyridazin-3-yl)phenol]	50 to 500	30 to 70	50 to 500	–	–
CO[C@@H]1CCN(CC#Cc2nccc(N3CCN(c4cc(-c5ccccc5O)nnc4N)CC[C@H]3C)n2)C1 [Compound P-242, o-{5-[(R)-4-(2-{3-[(R)-3-methoxy-1-pyrrolidinyl]-1-propynyl}-4-pyrimidinyl)-5-methyl-1,4-diazepan-1-yl]-6-amino-3-pyridazinyl} phenol]	< 50	30 to 70	< 50	++ (++=30-70%)	–
Nc1nnc(-c2ccccc2O)cc1N1CCN(c2ccnc(C#CCNC(=O)c3cnn4cccc(F)c34)n2)CC1 [Compound P-117, N-(3-(4-(4-(3-amino-6-(2-hydroxyphenyl)pyridazin-4-yl)piperazin-1-yl)pyrimidin-2-yl)prop-2-yn-1-yl)-4-fluoropyrazolo[1,5-a]pyridine-3-carboxamide]	50 to 500	30 to 70	50 to 500	++ (++=30-70%)	–
Nc1nnc(-c2ccccc2O)cc1N1CCN(c2ccnc(C#CCNC(=O)c3cc4n(n3)CCC4)n2)CC1 [Compound P-59, N-(3-(4-(4-(3-amino-6-(2-hydroxyphenyl)pyridazin-4-yl)piperazin-1-yl)pyrimidin-2-yl)prop-2-yn-1-yl)-5,6-dihydro-4H-pyrrolo[1,2-b]pyrazole-2-carboxamide]	> 5000	–	50 to 500	++ (++=30-70%)	–
Cc1nn2ccn(CC#Cc3nccc(N4CCCN(c5cc(-c6ccccc6O)nnc5N)CC4)n3)c(=O)c2c1C [Compound P-115, 5-(3-(4-(4-(3-amino-6-(2-hydroxyphenyl)pyridazin-4-yl)-1,4-diazepan-1-yl)pyrimidin-2-yl)prop-2-yn-1-yl)-2,3-dimethylpyrazolo[1,5-a]pyrazin-4(5H)-one]	50 to 500	30 to 70	50 to 500	+++ (+++=>70%)	–
NCC#Cc1nccc(N2CCC3(CC2)CCN(c2cc(-c4ccccc4O)nnc2N)CC3)n1 [Compound P-90, 2-(6-amino-5-(9-(2-(3-aminoprop-1-yn-1-yl)pyrimidin-4-yl)-3,9-diazaspiro[5.5]undecan-3-yl)pyridazin-3-yl)phenol]	500 to 5000	< 30	500 to 5000	+ (+=<30%)	–
CC1(C)COCCN1CC#Cc1nccc(N2CCCN(c3cc(-c4ccccc4O)nnc3N)CC2)n1 [Compound P-317, 0-[6-amino-5-(4-{2-[3-(3,3-dimethyl-4-morpholinyl)-1-propynyl]-4-pyrimidinyl}-1,4-diazepan-1-yl)-3-pyridazinyl]phenol]	500 to 5000	< 30	50 to 500	++ (++=30-70%)	–
C[C@H]1CN(c2ccnc(C#CCN)n2)CCN1c1cc(-c2ccccc2O)nnc1N [Compound P-86, (S)-2-(6-amino-5-(4-(2-(3-aminoprop-1-yn-1-yl)pyrimidin-4-yl)-2-methylpiperazin-1-yl)pyridazin-3-yl)phenol]	> 5000	–	500 to 5000	+ (+=<30%)	–
Nc1nnc(-c2ccccc2O)cc1N1CCC2(CCCN(c3ccnc(C#CCNC(=O)c4cc5ncccn5n4)n3)C2)CC1 [Compound P-35, N-(3-(4-(9-(3-amino-6-(2-hydroxyphenyl)pyridazin-4-yl)-2,9-diazaspiro[5.5]undecan-2-yl)pyrimidin-2-yl)prop-2-yn-1-yl)pyrazolo[1,5-a]pyrimidine-2-carboxamide]	50 to 500	> 70	50 to 500	++ (++=30-70%)	–
Nc1nnc(-c2ccccc2O)cc1N1CCCN(c2ccnc(C#CCN3CCOCC3)n2)CC1 [Compound P-136, 2-(6-amino-5-(4-(2-(3-morpholinoprop-1-yn-1-yl)pyrimidin-4-yl)-1,4-diazepan-1-yl)pyridazin-3-yl)phenol]	50 to 500	30 to 70	50 to 500	++ (++=30-70%)	–
C[C@@H]1CCN(c2cc(-c3ccccc3O)nnc2N)CCN1c1ccnc(C#CCN2CC3CC(C2)O3)n1 [Compound P-179, o-{5-[(R)-5-methyl-4-(2-{3-(6-oxa-3-azabicyclo[3.1.1]hept-3-yl)-1-propynyl}-4-pyrimidinyl)-1,4-diazepan-1-yl]-6-amino-3-pyridazinyl}phenol]	50 to 500	30 to 70	50 to 500	+++ (+++=>70%)	–
Nc1nnc(-c2ccccc2O)cc1N1CCCN(c2ccnc(C#CCNC(=O)NC3CCC3)n2)CC1 [Compound P-325, 0-[6-amino-5-(4-{2-[3-(3-cyclobutylureido)-1-propynyl]-4-pyrimidinyl}-1,4-diazepan-1-yl)-3-pyridazinyl]phenol]	50 to 500	30 to 70	500 to 5000	++ (++=30-70%)	–
CC(C)NC(=O)NCC#Cc1nccc(N2CCCN(c3cc(-c4ccccc4O)nnc3N)CC2)n1 [Compound P-327, 0-[6-amino-5-(4-{2-[3-(3-isopropylureido)-1-propynyl]-4-pyrimidinyl}-1,4-diazepan-1-yl)-3-pyridazinyl]phenol]	500 to 5000	30 to 70	500 to 5000	++ (++=30-70%)	–
CC1CN(c2cc(-c3ccccc3O)nnc2N)CCCN1c1ccnc(C#CCNC(=O)c2cc3ncccn3n2)n1 (stereo not drawn) [Compound P-20, N-(3-(4-(4-(3-amino-6-(2-hydroxyphenyl)pyridazin-4-yl)-2-methyl-1,4-diazepan-1-yl)pyrimidin-2-yl)prop-2-yn-1-yl)pyrazolo[1,5-a]pyrimidine-2-carboxamide]	50 to 500	30 to 70	50 to 500	++ (++=30-70%)	–
Nc1nnc(-c2ccccc2O)cc1N1CCN(c2ccnc(C#CCNC(=O)c3ccc4ccccc4n3)n2)CC1 [Compound P-64, N-(3-(4-(4-(3-amino-6-(2-hydroxyphenyl)pyridazin-4-yl)piperazin-1-yl)pyrimidin-2-yl)prop-2-yn-1-yl)quinoline-2-carboxamide]	50 to 500	30 to 70	50 to 500	++ (++=30-70%)	–
CC(C)(C)OC(=O)NC/C=C/c1nccc(N2CCCN(c3cc(-c4ccccc4O)nnc3N)CC2)n1 [Compound P-114, tert-butyl (E)-(3-(4-(4-(3-amino-6-(2-hydroxyphenyl)pyridazin-4-yl)-1,4-diazepan-1-yl)pyrimidin-2-yl)allyl)carbamate]	50 to 500	30 to 70	50 to 500	+++ (+++=>70%)	–
Nc1nnc(-c2ccccc2O)cc1N1CC2CCC(C1)N2c1ccnc(C#CCn2cncn2)n1 [Compound P-289, 0-[6-amino-5-(8-{2-[3-(1H-1,2,4-triazol-1-yl)-1-propynyl]-4-pyrimidinyl}-3,8-diazabicyclo[3.2.1]oct-3-yl)-3-pyridazinyl]phenol]	50 to 500	30 to 70	50 to 500	++ (++=30-70%)	–
C[C@@H]1CCN(c2cc(-c3ccccc3O)nnc2N)CCN1c1ccc(C#N)c(C#CCN2CC(F)(F)[C@H]2C)n1 [Compound P-413, 6-{(R)-4-[3-amino-6-(o-hydroxyphenyl)-4-pyridazinyl]-7-methyl-1,4-diazepan-1-y1}-2-{3-[(R)-3,3-difluoro-2-methyl-1-azetidinyl]-1-propynyl} nicotinonitrile]	> 5000	–	50 to 500	–	++ (++=30-70%)
Nc1nnc(-c2ccccc2O)cc1N1CCN(c2ccnc(C#CCNC(=O)c3cccnn3)n2)CC1 [Compound P-5, N-[3-(4-{4-[3-amino-6-(2-hydroxyphenyl)pyridazin-4-yl]piperazin-1-yl}pyrimidin-2-yl)prop-2-yn-1-yl]pyridazine-3-carboxamide]	50 to 500	< 30	50 to 500	++ (++=30-70%)	–
COC[C@@H](C)NCC#Cc1nccc(N2CCCN(c3cc(-c4ccccc4O)nnc3N)CC2)n1 [Compound P-277, 0-{5-[4-(2-{3-[(R)-2-methoxy-1-methylethylamino]-1-propynyl}-4-pyrimidinyl)-1,4-diazepan-1-yl]-6-amino-3-pyridazinyl}phenol]	50 to 500	30 to 70	50 to 500	++ (++=30-70%)	–

Source: patent US20260265238A1, “COMPOUNDS AND PHARMACEUTICAL COMPOSITIONS THAT DEGRADE SWI/SNF-RELATED MATRIX-ASSOCIATED ACTIN-DEPENDENT REGULATOR OF CHROMATIN SUBFAMILY A” (Plexium, Inc., priority 2023, published 2026)
